Literature values, collected in patent US10646430B2, “Topical compositions for stimulating adipogenesis and lipogenesis to reduce the signs of skin aging” (Kimberly-Clark Worldwide, Inc., priority 2014, dated 2020).

System: 3T3-L1 cells
Details: Kim et al., Nutr. Res. 32(6): 439-447

Fucoidan
adipogenesis (literature): inhibit adipogenesis
